Test results from patent US6562856B1, “Pyrazolyl benzyl ether deriviatives having a fluoromethoxy group and the use thereof as pesticides” (Bayer Aktiengesellschaft, priority 1999, dated 2003).

Key:
[1] = test system: Alternaria solani; experiment: Alternaria Test (Tomato)/protective; type: in vivo; details: protective, application rate 750 g/ha, evaluation 7 days after inoculation
Experimental: Alternaria Test (Tomato)/protective
To test for protective activity, young tomato plants are sprayed with the preparation of active compound at the stated application rate. 1 day after the treatment, the plants are inoculated with a spore suspension of Alternaria solani and then remain at 100% rel. humidity and 20° C. for 24 h. The plants then remain at 96% rel. atmospheric humidity and a temperature of 20° C.
Evaluation is carried out 7 days after the inoculation. 0% means an efficacy which corresponds to that of the control, whereas an efficacy of 100% means that no infection is observed.

[2] = test system: Pyricularia oryzae; type: in vivo; details: rice, protective, application rate 125 g/ha, evaluation 7 days after inoculation
[3] = test system: Sphaerotheca fuliginea; experiment: Sphaerotheca Test (Cucumber)/protective; type: in vivo; details: protective, application rate 100 g/ha, evaluation 10 days after inoculation
Experimental: Sphaerotheca Test (Cucumber)/protective
(§1) To test for protective activity, young plants are sprayed with the preparation of active compound at the stated application rate. After the spray coating has dried on, the plants are inoculated with an aqueous spore suspension of Sphaerotheca fuliginea. The plants are then placed in a greenhouse at about 23° C. and a relative atmospheric humidity of about 70%.
(§2) Evaluation is carried out 10 days after the inoculation. 0% means an efficacy which corresponds to that of the control, whereas an efficacy of 100% means that no infection is observed.

[4] = test system: Leptosphaeria nodorum; experiment: Leptosphaeria nodorum Test (Wheat)/protective; type: in vivo; details: protective, application rate 750 g/ha, evaluation 12-14 days after inoculation
Experimental: Leptosphaeria nodorum Test (Wheat)/protective
To test for protective activity, young wheat plants are sprayed with the preparation of active compound at the stated application rate. 1 day after the treatment, the plants are inoculated with an aqueous spore suspension of Leptosphaeria nodorum and then remain at 100% rel. atmospheric humidity and 20° C. for 48 h. The plants are then placed in a greenhouse at 80% rel. atmospheric humidity and a temperature of 22° C.
Evaluation is carried out 12-14 days after the inoculation. 0% means an efficacy which corresponds to that of the control, whereas an efficacy of 100% means that no infection is observed.

[5] = test system: caterpillars of the armyworm (Spodoptera frugiperda); experiment: Spodoptera frugiperda Test; type: in vivo; details: cabbage leaves dipped, concentration of active compound 1000 ppm
Excerpt: Spodoptera frugiperda Test
(§3) Solvent: 30 parts by weight of acetone

[6] = test system: greenhouse red spider mite (Tetranychus urticae); experiment: Tetranychus Test (OP-resistant/dip Treatment); details: bean plants dipped, OP-resistant, concentration of active compound 100 ppm
Experimental: Emulsifier: 1 part by weight of alkylaryl polyglycol ether
After the desired period of time, the kill in % is determined. 100% means that all spider mites have been killed; 0% means that none of the spider mites have been killed.

[7] = test system: green peach aphid (Myzus persicae); experiment: Myzus test; type: in vivo; details: broad bean seedlings dipped, concentration of active compound 1000 ppm
Excerpt: as §3

[8] = test system: Plasmopara viticola; experiment: Plasmopara Test (Grapevine)/protective; type: in vivo; details: protective, application rate 100 g/ha, evaluation 6 days after inoculation
Experimental: Plasmopara Test (Grapevine)/protective
To test for protective activity, young plants are sprayed with the preparation of active compound at the stated application rate. After the spray coating has dried on, the plants are inoculated with an aqueous spore suspension of Plasmopara viticola and then remain in an incubation cabinet at about 20° C. and 100% relative atmospheric humidity for 1 day. The plants are then placed in a greenhouse at about 21° C. and about 90% relative atmospheric humidity for 5 days. The plants are then moistened and placed in an incubation cabin for 1 day.
Evaluation is carried out 6 days after the inoculation. 0% means an efficacy which corresponds to that of the control, whereas an efficacy of 100% means that no infection is observed.

[9] = test system: Podosphaera leucotricha; experiment: Podosphaera Test (Apple)/protective; type: in vivo; details: protective, application rate 100 g/ha, evaluation 10 days after inoculation
Experimental: Podosphaera Test (Apple)/protective
as §1, with “the apple mildew pathogen Podosphaera leucotricha.” for “Sphaerotheca fuliginea.”
as §2

[10] = test system: larvae of the mustard beetle (Phaedon cochleariae); experiment: Phaedon Larvae Test; type: in vivo; details: cabbage leaves dipped, concentration of active compound 1000 ppm
Excerpt: as §3

With COC(=O)C(=COCF)c1ccccc1COc1ccn(-c2ccc(Cl)cc2)n1 [Example 1, methyl 2-[2-({[1-(4-chlorophenyl)-1H-pyrazol-3-yl]oxy}methyl)phenyl]-3-(fluoromethoxy)-2-acrylate] the efficacy [1] was no less than 80%, the efficacy [2] was no less than 80% and the efficacy [3] was no less than 98%. The efficacy [4] was no less than 98%, the kill rate [5] was 100% and the kill rate [6] was 90%. It also gave a kill rate [7] of 100%, an efficacy [8] of no less than 98% and a chromatographic logP of 3.91. For the same molecule, the efficacy [9] was no less than 98% and the kill rate [10] was 100%.
